Read-outs that look alike come from different tables or passages of the source. Numbered stars: 1 amine (or outer) side, 2 acyl side, 3 side chain; on linkers, the order of the positions; unused ones are H or OH. Square brackets hold non-standard residues; d marks the D form. Peptide text beside a SMILES is read from it. * marks the point of attachment. Exatecan = CC[C@@]1(O)C(=O)OCc2c1cc1n(c2=O)Cc2c-1nc1cc(F)c(C)c3c1c2[C@@H](N*)CC3; Hexanoyl(6-maleimido) = O=C1C=CC(=O)N1CCCCCC(=O)*; NHCH2OCH2CO = O=C(COCN[*:1])[*:2]

The target of one series is cathepsin B (Homo sapiens, UniProt P07858). The settings on record: for speed of enzyme digestion: pH range 5.0 to 7.0.
Series [1] concerns the target T1, Tumor-associated calcium signal transducer 2 (UniProt P09758 27-323, limits assumed).
T1 sequence (looked up): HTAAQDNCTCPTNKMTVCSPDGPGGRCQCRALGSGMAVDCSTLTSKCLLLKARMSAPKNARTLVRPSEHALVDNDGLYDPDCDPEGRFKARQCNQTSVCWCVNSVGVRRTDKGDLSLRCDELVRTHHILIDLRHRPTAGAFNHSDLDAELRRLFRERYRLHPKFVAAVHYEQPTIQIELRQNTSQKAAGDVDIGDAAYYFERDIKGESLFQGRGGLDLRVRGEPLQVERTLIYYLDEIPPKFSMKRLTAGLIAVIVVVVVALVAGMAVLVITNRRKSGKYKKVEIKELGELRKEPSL
As to the kind of experiment: cell-based or functional assay.

Text for cathepsin B: Samples were taken at different time points and entered into a high-performance liquid chromatography-mass spectrometry instrument. The external standard method (with DXD as the external standard) was used to determine the release percentage of the drug.

In the case of `CC[C@@]1(O)C(=O)OCc2c1cc1n(c2=O)Cc2c-1nc1cc(F)c(C)c3c1c2[C@@H](NC(=O)COCNC(=O)CNC(=O)[C@H](Cc1ccccc1)NC(=O)CNC(=O)CNC(=O)CCCCCN1C(=O)C=CC1=O)CC3` [GGFG-Dxd, reference compound] ({Hexanoyl(6-maleimido)}-GGFG[NHCH2OCH2CO]-Exatecan), on cathepsin B, the “speed of enzyme digestion” value is recorded as “slow speed of enzyme digestion”.
`CC[C@@]1(O)C(=O)OCc2c1cc1n(c2=O)Cc2c-1nc1cc(F)c(C)c3c1c2[C@@H](NC(=O)COCN(CCS(C)(=O)=O)C(=O)OCc1ccc(NC(=O)[C@H](C)NC(=O)[C@@H](NC(=O)CCCCCN2C(=O)C=CC2=O)C(C)C)cc1)CC3` [LE14]: the “Percentage of drug release in the sample” value at cathepsin B (pH 5.0, 0 h) amounted to 13.82%; on cathepsin B (pH 5.0, 1 h), 96.0%; on cathepsin B (pH 5.0, 2 h), 98.35%; at cathepsin B (pH 5.0, 3 h) it was 99.12%; on cathepsin B (pH 5.0, 4 h) it was 99.21%; at cathepsin B (pH 5.0, 5 h) it was 99.45%. The “Percentage of drug release in the sample” value is reported as 98.23% on cathepsin B (pH 5.0, 6 h); 14.32% at cathepsin B (pH 6.0, 0 h); 96.12% at cathepsin B (pH 6.0, 1 h); 96.75% on cathepsin B (pH 6.0, 2 h); 98.52% on cathepsin B (pH 6.0, 3 h); 98.45% at cathepsin B (pH 6.0, 4 h). Besides, the “Percentage of drug release in the sample” value is 98.92% on cathepsin B (pH 6.0, 5 h); 99.15% at cathepsin B (pH 6.0, 6 h); 16.59% on cathepsin B (pH 7.0, 0 h); 98.32% on cathepsin B (pH 7.0, 1 h); 98.45% at cathepsin B (pH 7.0, 2 h); 99.12% on cathepsin B (pH 7.0, 3 h). Moreover, the “Percentage of drug release in the sample” value was determined as 99.12% at cathepsin B (pH 7.0, 4 h); 99.87% at cathepsin B (pH 7.0, 5 h); 99.47% on cathepsin B (pH 7.0, 6 h). The “speed of enzyme digestion” value at cathepsin B is recorded as “quickly enzymatically digested”.

B1: FDA018-LE12 (antibody, human IgG1, kappa, V domains shown)
VH: QVQLQQSGSELKKPGASVKVSCKASGYTFTNYGMNWVKQAPGQGLKWMGWINTYTGEPTYTDDFKGRFAFSLDTSVSTAYLQISSLKADDTAVYFCARGGFGSSYWYFDVWGQGSLVTVSS
VL: DIQLTQSPSSLSASVGDRVSITCKASQDVSIAVAWYQQKPGKAPKLLIYSASYRYTGVPDRFSGSGSGTDFTLTISSLQPEDFAVYYCQQHYITPLTFGAGTKVEIKR
modifications: linker-drug LE12 (Dxd payload) coupled to cysteine sulfhydryl groups after reduction of the interchain disulfide bonds; DAR 3.90 for the whole antibody; sites not stated
B1: in series [1], the “IC50 (nM), in vitro killing activity, BXPC3 Cell” value (“IC50 (nM) … BXPC3 Cell” below) was 0.68 nM; the “IC50 (nM), in vitro killing activity, MDA-MB-468 Cell” value (shortened to “IC50 (nM) … MDA-MB-468 Cell”) came to 1.03 nM; the “IC50 (nM), in vitro killing activity, NCI-N87 Cell” value (shortened to “IC50 (nM) … NCI-N87 Cell”) amounted to 1.12 nM.

B2: FDA018-LE14 (antibody, human IgG1, kappa, V domains shown)
VH: QVQLQQSGSELKKPGASVKVSCKASGYTFTNYGMNWVKQAPGQGLKWMGWINTYTGEPTYTDDFKGRFAFSLDTSVSTAYLQISSLKADDTAVYFCARGGFGSSYWYFDVWGQGSLVTVSS
VL: DIQLTQSPSSLSASVGDRVSITCKASQDVSIAVAWYQQKPGKAPKLLIYSASYRYTGVPDRFSGSGSGTDFTLTISSLQPEDFAVYYCQQHYITPLTFGAGTKVEIKR
modifications: linker-drug LE14 coupled to cysteine sulfhydryl groups after reduction of the interchain disulfide bonds; DAR 4.00 for the whole antibody; sites not stated
Consider B2, for which, in series [1], the “IC50 (nM) … BXPC3 Cell” value was 0.5 nM; the “IC50 (nM) … MDA-MB-468 Cell” value was found to be 0.8 nM; the “IC50 (nM) … NCI-N87 Cell” value worked out at 1.08 nM.

B3: FDA018-LE13 (antibody, human IgG1, kappa, V domains shown)
VH: QVQLQQSGSELKKPGASVKVSCKASGYTFTNYGMNWVKQAPGQGLKWMGWINTYTGEPTYTDDFKGRFAFSLDTSVSTAYLQISSLKADDTAVYFCARGGFGSSYWYFDVWGQGSLVTVSS
VL: DIQLTQSPSSLSASVGDRVSITCKASQDVSIAVAWYQQKPGKAPKLLIYSASYRYTGVPDRFSGSGSGTDFTLTISSLQPEDFAVYYCQQHYITPLTFGAGTKVEIKR
modifications: linker-drug LE13 coupled to cysteine sulfhydryl groups after reduction of the interchain disulfide bonds; DAR 4.10 for the whole antibody; sites not stated
Consider B3, for which, in series [1], the “IC50 (nM) … BXPC3 Cell” value was determined as 1.23 nM; the “IC50 (nM) … MDA-MB-468 Cell” value is 2 nM; the “IC50 (nM) … NCI-N87 Cell” value came out at 2.34 nM.

B4: FDA018-LE18 (antibody, human IgG1, kappa, V domains shown)
VH: QVQLQQSGSELKKPGASVKVSCKASGYTFTNYGMNWVKQAPGQGLKWMGWINTYTGEPTYTDDFKGRFAFSLDTSVSTAYLQISSLKADDTAVYFCARGGFGSSYWYFDVWGQGSLVTVSS
VL: DIQLTQSPSSLSASVGDRVSITCKASQDVSIAVAWYQQKPGKAPKLLIYSASYRYTGVPDRFSGSGSGTDFTLTISSLQPEDFAVYYCQQHYITPLTFGAGTKVEIKR
modifications: linker-drug LE18 coupled to cysteine sulfhydryl groups after reduction of the interchain disulfide bonds; DAR 3.96 for the whole antibody; sites not stated
Turning to B4, the “IC50 (nM) … MDA-MB-468 Cell” value in series [1] is 0.86 nM.

B5: FDA018-LE16 (antibody, human IgG1, kappa, V domains shown)
VH: QVQLQQSGSELKKPGASVKVSCKASGYTFTNYGMNWVKQAPGQGLKWMGWINTYTGEPTYTDDFKGRFAFSLDTSVSTAYLQISSLKADDTAVYFCARGGFGSSYWYFDVWGQGSLVTVSS
VL: DIQLTQSPSSLSASVGDRVSITCKASQDVSIAVAWYQQKPGKAPKLLIYSASYRYTGVPDRFSGSGSGTDFTLTISSLQPEDFAVYYCQQHYITPLTFGAGTKVEIKR
modifications: linker-drug LE16 coupled to cysteine sulfhydryl groups after reduction of the interchain disulfide bonds; DAR 4.03 for the whole antibody; sites not stated
Consider B5, for which, in series [1], the “IC50 (nM) … BXPC3 Cell” value is 1.58 nM; the “IC50 (nM) … MDA-MB-468 Cell” value is 1.64 nM; the “IC50 (nM) … NCI-N87 Cell” value came to 1.35 nM.
